Laboratory results: patent US8193378B2, “2H-chromene compound and derivative thereof” (Astellas Pharma Inc., priority 2008, dated 2012)

Tests used:
human S1P1 = molecular target: T1, human S1P1 (Homo sapiens, UniProt P21453); experiment: Ca2+ influx assay using human S1P1 expressing cell (Test Example 1, Method 2); assay type: cell-based; details: method 2, Ca2+ influx, human S1P1 expressing CHO cell (values with *); read-out: A: EC50, in vitro S1P1 agonist action (value with *)
T1 construct: expressed in transfected cells; membrane fraction used
Experimental: Evaluation of In Vitro S1P1 Receptor Agonist Activity in Biological Body
(Method 2) Method for Evaluation of Receptor Agonist Action by Ca^2+ Influx Assay Using Human S1P1 Expressing Cell
The in vitro S1P1 agonist action of the compound of the present invention was evaluated by the increase in the Ca^2+ concentration in a human S1P1 expressing cell. A cDNA encoding a human S1P1 was cloned from a human colorectal cDNA library and introduced to an expression vector pcDNA3.1 to construct a S1P1-pcDNA3.1. Then, by Lipofectamine 2000 (GIBCO), the S1P1-pcDNA3.1 was transfected into a CHO cell, and cultured in a Ham's F-12 culture medium containing 10% fetal bovine serum, 100 U/mL penicillin, 100 μg/mL streptomycin, and 1 mg/mL G418 disulfate, to obtain a stable, G418-resistant strain. The cultured human S1P1 expressing cells were isolated in a 1 mM EDTA.2Na-containing PBS and suspended in a Ham's F-12 culture medium containing 10% fetal bovine serum, 100 U/mL penicillin, and 100 μg/mL streptomycin. This cell suspension was dispensed to a 96-well plate at 50000 cells/well, and cultured at a CO2 incubator (5% CO2, 37° C.) overnight. The culture medium was replaced with a calcium-sensitive fluorescent reagent (FLIPR (registered trademark) calcium 3 assay kit, molecular device)-containing loading buffer (Hank's balance salt solution, 20 mM HEPES, 2.5 mM probenecid) and left stand at a CO2 incubator (5% CO2, 37° C.) for 1 hour. The plate was set at a Functional Drug Screening System FDSS6000 (Hamamatsu Photonics K. K.), and persistently measured 124 times every 1.02 second at an excitation wavelength of 480 nm. The test compound (final concentration 10^−12 to 10^−5 M) was added at the same time as the 12th measurement, and the change in the Ca^2+ concentration in cells was evaluated by the change in the fluorescent strength. For evaluation of the human S1P1 agonist action of the compound of the present invention and the comparative compound, the percentages with the rate of a maximum reaction to make the increase in the Ca^2+ concentration in cells saturated after the addition of the compound being set at 100% and the rate of the increase in the Ca^2+ concentration in cells by the addition of a vehicle alone being set at 0% were used, a non-linear regression curve was plotted, and a concentration to cause an agonist action operating 50% of the maximum reaction was defined as an EC50 value (nM).

[1] = tested on: peripheral blood lymphocytes; experiment: Reduction of number of peripheral blood lymphocytes in rat (Test Example 2); assay type: in vivo; details: Lymphocyte, male Lewis rats, oral, 24 hours after administration, read-out: B: ED50 24 h, reduction of number of lymphocytes in peripheral blood
Experimental: Evaluation of Reduction of Number of Peripheral Blood Lymphocytes in Rat
The action on the peripheral blood lymphocytes were evaluated using rats. 6- to 10-week-old male Lewis rats (Japan Charles River Laboratories Japan, Inc.) were randomly divided into groups (n=3), and the compound of the present invention was suspended in 0.5% methyl cellulose-containing distilled water, and orally administered with a sonde. At 4 hours or 24 hours after administration, 0.2 ml of blood was collected from the ocular fundus under ether anesthesia. To the blood sample were immediately added EDTA.4K and heparin to prevent clotting, and the number of the lymphocytes in blood was measured with an automatic hematocyte analyzer (Sysmex Corp.; XT-2000i). For the reduction of the number of the lymphocytes in peripheral blood by the compound of the present invention, the percentage with the number of the lymphocytes in groups administered with 0.5% methyl cellulose-containing distilled water being set at 100%, as performed at the same time, were used, and the dose to cause 50% reduction of the number of the lymphocytes in the peripheral blood by administration of the compound of the present invention was defined as an ED50 value (mg/kg).

[2] = Infrequent pulse expression using awake rats (Test Example 5); assay type: in vivo, rat; details: awake male Lewis rats, intravenous infusion for 10 minutes, 1 mg/kg administration
Experimental: Evaluation of Infrequent Pulse Expression Using Awake Rats Male Lewis rats were anesthetized with isoflurane inhalation and a polyethylene tube was intubated into the femoral artery and vein. It was connected to a blood pressure measuring amplifier•heart rate unit via a pressure transducer from an arterial line, and the arterial blood pressure and the heart rate were measured. Intravenous line from Vehicle (10% HCO40/tween80/PEG, 90% saline) and the present compounds were intravenously infused persistently at a rate of 1 mL/kg/min for 10 minutes. The measurement data were read (for a total evaluation time of 20 minutes) from a chart of the values before administration, at 1, 2, 5, and 10 min after the start of constant infusion, and at 1, 2, 5, and 10 min after the completion of infusion, and thus, for the heart rate and the blood pressure before administration, the decrease rates (%) before and after infusion were calculated.

T1 sequence (P21453 whole entry): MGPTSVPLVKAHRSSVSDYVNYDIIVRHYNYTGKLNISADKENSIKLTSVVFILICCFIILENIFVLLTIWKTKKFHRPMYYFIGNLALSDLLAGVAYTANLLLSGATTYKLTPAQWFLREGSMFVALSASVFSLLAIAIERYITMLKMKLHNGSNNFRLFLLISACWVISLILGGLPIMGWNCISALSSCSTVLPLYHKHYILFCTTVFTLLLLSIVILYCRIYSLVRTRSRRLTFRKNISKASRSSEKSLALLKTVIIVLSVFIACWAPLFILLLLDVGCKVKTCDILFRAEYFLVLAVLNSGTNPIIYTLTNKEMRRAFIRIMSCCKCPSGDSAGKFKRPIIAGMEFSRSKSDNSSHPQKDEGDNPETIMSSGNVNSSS

SMILES | EC50 (human S1P1) | ED50 [1] | influence on the heart rate and the blood pressure [2] | infrequent pulse expression [2]
Cl.O=C(O)[C@@H]1CCCN(CC2=Cc3c(F)cc(OCc4ccc(OC(CF)CF)c(Cl)c4)cc3OC2)C1 [Ex 223] | 1.1 nM | 0.32 mg/kg | – | –
Cl.O=C(O)[C@H]1CCCN(CC2=Cc3c(F)cc(OCc4ccc(OC(CF)CF)c(C(F)(F)F)c4)cc3OC2)C1 [Ex 230] | 7 nM | 0.19 mg/kg | does not have an influence | not expressed
Cl.O=C(O)[C@H]1CCCN(CC2=Cc3c(F)cc(OCc4ccc(OCC(F)(F)F)c(C(F)(F)F)c4)cc3OC2)C1 [Ex 236] | 32 nM | 0.1 mg/kg | – | –
